Starred links: 1 amine or outer side, 2 acyl side, 3 side chain; linkers in the order of their positions; H or OH if unused. Non-standard residues stand in square brackets, D forms with d. Residues, ends and D or L forms follow the SMILES beside them. ξ: configuration not given here. *: point of attachment. X8 = CCc1cc(OC)ccc1-c1ccc(CC(NC(=S)[C@H](CC(=O)O)N*)C(=S)NC(CCCc2ccccc2)C(N)=O)cc1; ξNMeBip(2'-Et,4'-OMe) = CCc1cc(OC)ccc1-c1ccc(CC(NC)C(=O)O)cc1; ξBip(2'-Et-4'-OMe) = CCc1cc(OC)ccc1-c1ccc(CC(N)C(=O)O)cc1; X11 = CN(C(CCCc1ccccc1)C(=O)[*:2])[*:1]; ξbishPhe(2-F) = NC(CCCc1ccccc1F)C(=O)O; ξαMePhe(2-F) = CC(N)(Cc1ccccc1F)C(=O)O; NMeD = CN[C@@H](CC(=O)O)C(=O)O; aThr = C[C@H](O)[C@H](N)C(=O)O; Aib = CC(C)(N)C(=O)O; Moc = COC(=O)*
Key:
Format in all cases: cell-based
[1] = system: RIN5F (Rat Insulinoma) cells; experiment: In vitro glucose-dependent insulin secretion (RIN5F cell assay screening protocol); details: 16.7 mM glucose load
Protocol: RIN5F (Rat Insulinoma) cells were cultured in RPMI 1640 medium supplemented with sodium pyruvate (1 mM) HEPES and Glucose (4.5 g/L) in a humidified incubator (5% CO2), at 37° C. After trypsinization, RIN5F cells were seeded at a concentration of 0.2×10^6 cells per well, in 12 well plates.
The buffer was replaced after 40 min. and the cells were incubated (37° C.) with the test peptidomimetics, at different concentration, for 30 min., both in the presence (16.7 mM) and absence (0 mM) of glucose load. The supernatant was collected and the insulin amount was measured by ultra sensitive Rat insulin ELISA kit (Crystal Chem, IL). The protein was estimated in the supernatant using Bicinchoninic Acid kit, according to the manufacturer's protocol (Sigma Aldrich, MO). The total insulin content obtained in Pico-gram (pg) was divided with the total protein (μg) in order to normalize for differences in cell density between wells.

Human GLP-1 receptor = target: T1, Human GLP-1 receptor (Homo sapiens, UniProt P43220); experiment: In vitro Human GLP-1 R agonist activity (cyclic AMP determination) in CHO/human GLP1R cells
T1 construct: The full-length cDNA was cloned in pcDNA3.1(+); expressed in transfected cells
Protocol: The novel peptidomimetics were screened for Human GLP-1 receptor (HGLP-1 R) agonist activity (in vitro), using the cAMP cell-based assay, in stably transfected CHO/human GLP1R cells. […] CHO cells were grown in Ham's F12 medium containing L-Glutamine (2 mM), HEPES (25 mM), NaHCO3 (1.1 g/L) and supplemented with NewBorn Calf Serum (NBCS; 10%), Penicillin (50 U/ml (v/v)) and Streptomycin (50 ug/ml (v/v)). Cells were split every 3 days 1:8.
The cDNA encoding the human GLP-1 receptor was isolated by RT-PCR according to standard protocol. The full-length cDNA was cloned in pcDNA3.1(+). […] Clones expressing the receptor were generated by G418 (800 μg/ml active, Sigma) selection. The stable clones were thereafter maintained at 500 ug/ml (G418). The selected clone was used between passages 9-25 for cAMP assays.
The trypsin was inactivated using Ham's F12 medium containing 10% NBCS and the cells were suspended in 2 ml of complete medium. […] The medium was aspirated off from the 12 well plate and the cells were washed once using Ham's F12 (plain). […] The cells were incubated with the test compounds for 30 min in humidified atmosphere and 37° C. After the incubation, the medium was removed and cells were washed once with plain Ham's F12. Subsequently, the cells were lysed by adding 500 ul of ice cold 0.1 N HCl to each well and shaking for 30 minutes at 200 rpm. The cells were then scrapped, the lysate was collected in micro centrifuge tubes and centrifuged at 12000 rpm for 10 min to remove the debris. 300 ul of supernatant from each micro-centrifuge tube was then removed into a glass tube and dried under N2 for 30 min, for cAMP estimation. The total cAMP was estimated from the sample according to the manufacturer's protocol using Cyclic AMP immunoassay kit (R&D systems, Minneapolis. MN). The remaining supernatant is used to determine the protein concentration using micro BCA (Sigma). Data is calculated as percent of control (Vehicle: water) and expressed as Mean±SD.

human glucagon receptor = target: T2, human glucagon receptor (Homo sapiens, UniProt P47871); experiment: In vitro human glucagon antagonist activity (inhibition of cAMP production) in CHO/human glucagon R cells; details: with saturated concentration of glucagon peptide
T2 construct: The full-length cDNA was cloned in pcDNA3.1 (Invitrogen); expressed in transfected cells
Protocol: The CHO-K1 cells (CRL 9618) were obtained from American Type Culture Collection (Rockville, Md.). CHO cells were grown in Ham's F12 medium containing L-Glutamine (2 mM), HEPES (25 mM), NaHCO3 (1.1 g/L) and supplemented with newborn Calf Serum (NBCS; 10%), Penicillin (50 U/ml (v/v)) and Streptomycin (50 ug/ml (v/v)). Cells were split every 3 days 1:8.
The full-length cDNA was cloned in pcDNA3.1 (Invitrogen). […] Clones expressing the receptor were generated by G418 (800 μg/ml active, Sigma) selection. The stable clones were thereafter maintained at 500 ug/ml (G418). The selected clone was used between passages 9-25 for cAMP assays.
The cells were trypsinized using 2 ml of TPVG (0.25% trypsin, 0.53 mM EDTA, 1.38-mM glucose). The trypsin was inactivated using Ham's F12 medium containing 10% NBCS and the cells were suspended in 2 ml of complete medium. […] The medium was aspirated off from the 12 well plate and the cells were washed once using Ham's F12 (plain). The cells were incubated at 37° C. with 500 ul of Ham's F12+1% BSA+0.125 mM RO-20 for 30 min. […] After the incubation, the medium was removed and cells were washed once with plain Ham's F12. Subsequently, the cells were lysed by adding 500 ul of ice cold 0.1 N HCl to each well and shaking for 30 minutes at 200 rpm. The cells were then scrapped, the lysate was collected in micro centrifuge tubes and centrifuged at 12000 rpm for 10 min to remove the debris. 300 ul of supernatant from each micro-centrifuge tube was then removed into a glass tube and dried under N2 for 30 min, for cAMP estimation. The total cAMP was estimated from the sample according to the manufacturer's protocol using Cyclic AMP immunoassay kit (R&D systems, Minneapolis. MN). The remaining supernatant is used to determine the protein concentration using micro BCA (Sigma). Data is calculated as percent of control (Vehicle: water) and expressed as Mean+SD.

T2 sequence (P47871 26-477): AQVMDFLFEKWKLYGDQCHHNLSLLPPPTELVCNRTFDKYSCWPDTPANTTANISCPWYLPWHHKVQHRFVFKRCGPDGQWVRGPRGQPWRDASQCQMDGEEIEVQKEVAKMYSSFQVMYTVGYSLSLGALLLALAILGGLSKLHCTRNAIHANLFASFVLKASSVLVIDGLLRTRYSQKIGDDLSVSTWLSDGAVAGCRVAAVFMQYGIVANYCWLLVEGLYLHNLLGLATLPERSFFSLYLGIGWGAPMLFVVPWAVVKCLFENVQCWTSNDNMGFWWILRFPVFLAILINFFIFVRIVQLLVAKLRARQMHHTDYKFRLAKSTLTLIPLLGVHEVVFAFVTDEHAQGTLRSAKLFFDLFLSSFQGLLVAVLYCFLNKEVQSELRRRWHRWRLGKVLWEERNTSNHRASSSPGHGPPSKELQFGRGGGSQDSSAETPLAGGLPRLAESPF
T1 sequence (P43220 24-463): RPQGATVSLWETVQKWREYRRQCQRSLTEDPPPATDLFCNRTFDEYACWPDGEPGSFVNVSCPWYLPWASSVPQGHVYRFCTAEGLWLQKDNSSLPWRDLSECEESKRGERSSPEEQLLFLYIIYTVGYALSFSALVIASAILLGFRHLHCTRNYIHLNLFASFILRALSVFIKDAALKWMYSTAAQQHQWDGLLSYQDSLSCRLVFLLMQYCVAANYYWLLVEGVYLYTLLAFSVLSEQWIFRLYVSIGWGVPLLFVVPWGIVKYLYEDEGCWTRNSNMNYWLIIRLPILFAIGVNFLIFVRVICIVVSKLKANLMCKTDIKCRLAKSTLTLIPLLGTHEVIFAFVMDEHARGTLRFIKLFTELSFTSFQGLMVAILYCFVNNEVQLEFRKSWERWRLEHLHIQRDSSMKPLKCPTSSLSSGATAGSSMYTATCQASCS

| Structure (SMILES) | Insulin secretion ([1]; 0.1 nM test compd.) [pg/µg/h] | Insulin secretion ([1]; 1 nM test compd.) [pg/µg/h] | Insulin secretion ([1]; 10 nM test compd.) [pg/µg/h] | Human Glucagon receptor antagonistic activity shown as inhibition of cAMP production of Glucagon peptide (human glucagon receptor; 1 nM test compound) [pmol/ml/μg prt] | Human Glucagon receptor antagonistic activity shown as inhibition of cAMP production of Glucagon peptide (human glucagon receptor; 10 nM test compound) [pmol/ml/μg prt] | Human Glucagon receptor antagonistic activity shown as inhibition of cAMP production of Glucagon peptide (human glucagon receptor; 100 nM test compound) [pmol/ml/μg prt] | Human Glucagon receptor antagonistic activity shown as inhibition of cAMP production of Glucagon peptide (human glucagon receptor; 1 μM test compound) [pmol/ml/μg prt] | Human Glucagon receptor antagonistic activity shown as inhibition of cAMP production of Glucagon peptide (human glucagon receptor; 10 μM test compound) [pmol/ml/μg prt] | further results |
| --- | --- | --- | --- | --- | --- | --- | --- | --- | --- |
| CCc1cc(OC)ccc1-c1ccc(CC(NC(=O)[C@H](CC(=O)O)NC(=O)[C@H](CO)NC(=O)[C@@H](NC(=O)[C@H](Cc2ccccc2)NC(=O)[C@@H](NC(=O)CNC(=O)[C@H](CCC(N)=O)NC(=O)[C@H](CO)NC(=O)[C@@H](N)Cc2c[nH]cn2)[C@@H](C)O)[C@@H](C)O)C(=O)NC(CCCc2ccc(F)cc2C(F)(F)F)C(N)=O)cc1 (single isomer, unassigned) [compound 48] | 12.9 ± 0.14 | 15.8 ± 0.13 | 29.9 ± 0.15 | – | – | – | – | – | – |
| CCc1cc(OC)ccc1-c1ccc(CC(NC(=O)[C@H](CC(=O)O)NC(=O)[C@H](CO)NC(=O)[C@@H](NC(=O)C(C)(Cc2ccccc2F)NC(=O)[C@@H](NC(=O)CNC(=O)[C@H](CC(C(F)(F)F)C(F)(F)F)NC(=O)C(C)(C)NC(=O)[C@@H](N)Cc2c[nH]cn2)[C@@H](C)O)[C@@H](C)O)C(=O)NC(CCCc2cc(C)cc(C)c2)C(N)=O)cc1 (single isomer, unassigned) [compound 235] | 12.6 ± 0.25 | 15.3 ± 0.31 | 29.7 ± 0.48 | – | – | – | – | – | – |
| CCc1cc(OC)ccc1-c1ccc(CC(NC(=O)[C@H](CC(=O)O)NC(=O)[C@H](CO)NC(=O)[C@@H](NC(=O)C(C)(Cc2ccccc2F)NC(=O)[C@@H](NC(=O)CNC(=O)[C@H](CCC(N)=O)NC(=O)C(C)(C)NC(=O)[C@@H](N)Cc2c[nH]cn2)[C@@H](C)O)[C@@H](C)O)C(=O)NC(CCCc2ccccc2F)C(N)=O)cc1 (stereo partly shown) [compound 85] (H-H[Aib]QGT[ξαMePhe(2-F)]TSD[ξBip(2'-Et-4'-OMe)][ξbishPhe(2-F)]-NH2) | 11.9 ± 0.17 | 14.2 ± 0.13 | 27.6 ± 0.16 | – | – | – | – | – | – |
| CCc1cc(OC)ccc1-c1ccc(CC(NC(=O)[C@H](CC(=O)O)NC(=O)[C@H](CO)NC(=O)[C@@H](NC(=O)C(C)(Cc2ccccc2F)NC(=O)[C@@H](NC(=O)CNC(=O)[C@H](CC(C(F)(F)F)C(F)(F)F)NC(=O)C(C)(C)NC(=O)[C@@H](N)Cc2c[nH]cn2)[C@H](C)O)[C@H](C)O)C(=O)NC(CCCc2ccccc2)C(N)=O)cc1 (single isomer, unassigned) [compound 228] | – | – | – | – | – | – | – | – | Human GLP-1 R activity (cAMP release), % activity with respect to control (Human GLP-1 receptor; 1 nM test compound): 99 ± 0.11%; Human GLP-1 R activity (cAMP release), % activity with respect to control (Human GLP-1 receptor; 10 nM test compound): 99 ± 0.13%; Human GLP-1 R activity (cAMP release), % activity with respect to control (Human GLP-1 receptor; 100 nM test compound): 99 ± 0.16%; Human GLP-1 R activity (cAMP release), % activity with respect to control (Human GLP-1 receptor; 1 μM test compound): 99 ± 0.06%; Human GLP-1 R activity (cAMP release), % activity with respect to control (Human GLP-1 receptor; 10 μM test compound): 99 ± 0.10% |
| CCc1cc(OC)ccc1-c1ccc(CC(NC(=O)[C@H](CC(=O)O)NC(=O)[C@H](CO)NC(=O)[C@@H](NC(=O)[C@H](Cc2ccccc2)NC(=O)[C@@H](NC(=O)CNC(=O)[C@H](CCC(N)=O)NC(=O)[C@H](CO)NC(=O)[C@@H](N)Cc2c[nH]cn2)[C@@H](C)O)[C@@H](C)O)C(=O)NC(CCCc2ccccc2)C(N)=O)cc1 (single isomer, unassigned) [compound 5] | – | – | – | 6 ± 0.02 | 5 ± 0.04 | 3 ± 0.14 | 0 | 0 | – |
| CCc1cc(OC)ccc1-c1ccc(CC(C(=O)N(C)C(CCCc2ccccc2)C(N)=O)N(C)C(=O)[C@H](CC(=O)O)N(C)C(=O)[C@H](CO)NC(=O)[C@@H](NC(=O)C(C)(Cc2ccccc2F)NC(=O)[C@@H](NC(=O)CNC(=O)[C@H](CCC(N)=O)NC(=O)C(C)(C)NC(=O)[C@H](Cc2c[nH]cn2)NC(=O)OC)[C@H](C)O)[C@H](C)O)cc1 (stereo partly shown) [compound 150] (Moc-H[Aib]QG[aThr][ξαMePhe(2-F)][aThr]S[NMeD][ξNMeBip(2'-Et,4'-OMe)][X11]-NH2) | – | – | – | 10 ± 0.12 | 8 ± 0.02 | 6 ± 0.04 | 4 ± 0.05 | 1 ± 0.02 | – |
| CCc1cc(OC)ccc1-c1ccc(CC(CNC(CCCc2ccccc2F)C(N)=O)NC[C@H](CC(=O)O)NC(=O)[C@H](CO)NC(=O)[C@@H](NC(=O)C(C)(Cc2ccccc2F)NC(=O)[C@@H](NC(=O)CNC(=O)[C@H](CCC(N)=O)NC(=O)C(C)(C)NC(=O)[C@H](Cc2c[nH]cn2)NC(=O)OC)[C@@H](C)O)[C@@H](C)O)cc1 (single isomer, unassigned) [compound 196] | – | – | – | – | – | – | – | – | Human GLP-1 R activity (cAMP release), % activity with respect to control (Human GLP-1 receptor; 1 nM test compound): 39 ± 0.10%; Human GLP-1 R activity (cAMP release), % activity with respect to control (Human GLP-1 receptor; 10 nM test compound): 81 ± 0.08%; Human GLP-1 R activity (cAMP release), % activity with respect to control (Human GLP-1 receptor; 100 nM test compound): 89 ± 0.09%; Human GLP-1 R activity (cAMP release), % activity with respect to control (Human GLP-1 receptor; 1 μM test compound): 96 ± 0.11%; Human GLP-1 R activity (cAMP release), % activity with respect to control (Human GLP-1 receptor; 10 μM test compound): 99 ± 0.16% |
| CCc1cc(OC)ccc1-c1ccc(CC(NC(=S)[C@H](CC(=O)O)NC(=O)[C@H](CO)NC(=O)[C@@H](NC(=O)C(C)(Cc2ccccc2F)NC(=O)[C@@H](NC(=O)CNC(=O)[C@H](CCC(N)=O)NC(=O)C(C)(C)NC(=O)[C@@H](N)Cc2c[nH]cn2)[C@H](C)O)[C@H](C)O)C(=S)NC(CCCc2ccccc2)C(N)=O)cc1 (stereo partly shown) [compound 177] (H-H[Aib]QG[aThr][ξαMePhe(2-F)][aThr]S-X8) | – | – | – | 0 | 0 | 0 | 0 | 0 | – |
